Patent publication US10287581B2, “Cell penetrating peptides for intracellular delivery of molecules” (AADIGEN, LLC, priority 2011, dated 2019)
Read-outs that look alike come from different tables or passages of the source.

Columns and labels:
[1] = Binding of FAM-guanosine to VEPEP-6 by FAM fluorescence; conditions: cargo FAM-guanosine
Experimental: (§1) FIG. 3: Binding of small hydrophobic molecules to VEPEP-6 as monitored by fluorescence spectroscopy. The binding of Doxorubicin, AZT and Porphyrin to VEPEP-6 was monitored by following the quenching of tryptophan-intrinsic VEPEP-6 fluorescence and that of fluoresceine-labelled-Guanosine (FAM-G) by monitoring FAM-fluorescence. Dissociation constants were calculated from data fitting.
FIGS. 8A and 8B: (8A) Binding of small hydrophobic fluorescent molecules (SFM) to VEPEP-6 as monitored by fluorescence spectroscopy. In the present case, a fluorescently labeled nucleotide (fluorescein-labeled-Guanine) was used. Dissociation constants were calculated from data fitting. (8B) Effect of VEPEP-6 mediated doxorubicin on cancer cell viability. Dose responses of free (white bars) and VEPEP-6 mediated (grey bars) doxorubicin have been evaluated on the viability of U2OS and MCF7 cancer cells.
(§2) VEPEP-6 peptides also form stable particles with small aromatic and/or hydrophobic molecules including daunomycin, Paclitaxel, doxorubicin, AZT, porphyrin, FAM-G or fluorescent dyes (FIG. 3). The dissociation constant for small hydrophobic molecule ranges between 0.03 to 4 μM, depending on the nature of the dyes and of the peptides.

siRNA = test: Binding of siRNA to VEPEP-6 peptides by fluorescence spectroscopy
Experimental: (§3) FIG. 2: Binding of nucleic acid to VEPEP-6a as monitored by TRP-intrinsic fluorescence spectroscopy. Dissociation constants were calculated from data fitting. Nucleic acids used: double stranded DNA (45/35 mer), siRNA (19/19 or 25/25) and single stranded DNA (19 or 36 mer)
(§4) VEPEP-6 peptide form stable complexes with siRNA, single stranded and double stranded oligonucleotides. The binding of cargos to VEPEP-6 was monitored by fluorescence spectroscopy using the both intrinsic Trp group of VEPEP-6 (3 to 5 Trp-residues) and extrinsic fluorescently labeled cargoes (using Cy3, Cy5 or FITC). Fluorescence experiments were performed on a PTI spectrofluorimeter at 25° C. in a NaCl 154 mM buffer. Intrinsic Trp-fluorescence of VEPEP-6 was excited at 290 nm and emission spectrum was recorded between 310 and 400 nm, with a spectral band-pass of 2 and 8 nm for excitation and emission, respectively. FITC-fluorescence of labelled-siRNA or DNA was excited at 492 nm and emission recorded between 500 and 580 nm. For VEPEP-6/siRNA interaction, 0.5 μM of FITC-labelled siRNA was titrated by increasing concentrations of peptide. All measurements were corrected for the dilution and curve fitting were performed by using Grafit software (Erithacus). Curve fitting reveal that VEPEP-6 strongly binds the different cargoes with dissociation constant in the nanomolar range (Table 1 and FIG. 2).
(§5) Binding of nucleic acid to ST-VEPEP-6aa was monitored by fluorescence spectroscopy using both TRP-intrinsic and fluorescently labelled nucleic acids. Dissociation constants were calculated from data fitting. Nucleic acids used were double stranded siRNA (19/19 or 25/25) and single stranded DNA (36 mer).

[2] = Binding of porphyrin to VEPEP-6 by quenching of tryptophan fluorescence; conditions: cargo porphyrin
Experimental: as §1, §2

[3] = test system: SS-DNA: single-stranded DNA; test: Binding of single-stranded DNA to VEPEP-6 peptides by fluorescence spectroscopy
Experimental: as §3, §4, §5

[4] = Binding of AZT to VEPEP-6 by quenching of tryptophan fluorescence; conditions: cargo AZT
Experimental: as §1, §2

[5] = Binding of doxorubicin to VEPEP-6 by quenching of tryptophan fluorescence; conditions: cargo Doxorubicin
Experimental: as §1, §2

[6] = test system: DD-DNA: double-stranded DNA; test: Binding of double-stranded DNA to VEPEP-6 peptides by fluorescence spectroscopy; conditions: cargo DD-DNA
Experimental: as §3, §4

cyclin B1 = test: Cyclin B1 silencing at protein (Western blotting) and mRNA (Quantigen) level; type: cell-based, Human; conditions: 200 nM siRNA complexed with VEPEP-6 at a 1/20 ratio
Experimental: FIGS. 6A-6C: VEPEP-6 dose response of Cyclin B1 silencing at the protein and mRNA levels on Hela (6A) and HS68 (6B) cells. Stock solution of VEPEP-6/siRNA ([…]) particles were prepared at a molar ratio of 1/20 (siRNA/VEPEP-6), and lower concentrations (from 200 nM to 0.125 nM) were obtained by serial dilution of the stock solution in PBS. HeLa (Panel A) and HS-68 (Panel B) cells (60% confluency) were overlaid with preformed complexes for 30 min, then fresh DMEM supplemented with 10% FCS was added directly to the cells, which were then returned to the incubator for 24 hrs. Cyclin B1 protein levels were determined by Western Blotting using Cdk2 as a control for quantification (white bars). Cyclin B1 mRNA levels were measured 12 hrs after transfection using Quantigen technology (black bars). Mismatched Cyc-B3 siRNA associated with VEPEP-6 (200 nM) and empty VEPEP-6 particles (20 μM) were used as a control. 6C: Dose-response of G2-arrest associated with Cyclin B1 silencing. HeLa (black bars) and HS68 (white bars) cells were treated with increasing concentrations of VEPEP-6/siRNA-Cyc-B1 from 0.25 nM to 20 nM. The cell cycle status was evaluated by FACS analysis. […]
Cyclin B1 mRNA and protein levels were determined 12 and 24 hrs following transduction, using Quantigen (Panomics Inc.) and Western blotting, respectively. […]

[7] = cargo siRNA, 25° C., NaCl 154 mM buffer, read-out: Kd

Substance	Binding [1]	Kd [1]	Binding (siRNA; cargo siRNA)	Kd (siRNA; [7])	Binding [2]	Kd [2]	Binding ([3]; cargo SS-DNA)	Kd ([3]; cargo SS-DNA, read-out: Kd)	Binding [4]	Kd [4]	Binding [5]	Kd [5]	Binding [6]	Kd [6]	effect on cyclin B1 levels and cell cycle progression (cyclin B1)	Kd (siRNA; double stranded nucleic acid (siRNA 19/19 or 25/25), read-out: dissociation constant)	Kd ([3]; single stranded nucleic acid (DNA 36 mer), read-out: dissociation constant)
Ac-[βA/S]LWRALWRL[L/C/I]R[S/T]LWRLWR[K/R]A-cysteamide [VEPEP-6c]	yes	4000 nM	yes	10 to 20 nM	yes	1200 nM	yes	50 to 100 nM	yes	300 nM	yes	30 nM	yes	200 nM	–	–	–
Ac-[βA/S]LWRALWRLWR[S/T]LWRLLW[K/R]A-cysteamide [VEPEP-6b]	no	–	yes	10 to 20 nM	yes	5000 nM	yes	50 to 100 nM	no	–	yes	700 nM	yes	200 nM	–	–	–
Ac-[βA/S]LWRALWRL[L/I]RALWRLLW[K/R]A-cysteamide [VEPEP-6e]	yes	2300 nM	yes	10 to 20 nM	yes	200 nM	yes	50 to 100 nM	yes	900 nM	yes	500 nM	yes	200 nM	–	–	–
si-GAPDH: unrelated siRNA targeting GAPDH, SEQ ID No: 21/22 (chain 1 CAUCAUCCCUGCCUCUACUTT; chain 2 AGUAGAGGCAGGGAUGAUG; chemistry not given here)	–	–	–	–	–	–	–	–	–	–	–	–	–	–	no effect	–	–
Ac-X1LFLARWRsLLRSsLWRLLWK-cysteamide [ST-VEPEP-6aa]	–	–	–	–	–	–	–	–	–	–	–	–	–	–	–	7 nM	4 nM
Ac-[βA/S]LWRALWRLWR[S/T]LWRLWR[K/R]A-cysteamide [VEPEP-6d]	yes	800 nM	yes	10 to 20 nM	yes	500 nM	yes	50 to 100 nM	yes	100 nM	yes	500 nM	yes	200 nM	–	–	–
Ac-[βA/S]LFRALWRLLR[S/T]LWRLLW[K/R]-cysteamide [VEPEP-6a]	no	–	yes	10 to 20 nM	yes	4000 nM	yes	50 to 100 nM	no	–	yes	1000 nM	yes	200 nM	–	–	–
Ac-[βA/S]LWRALWRL[L/C/I]RNLWRLLW[K/R]A-cysteamide [VEPEP-6f]	yes	2800 nM	yes	10 to 20 nM	yes	200 nM	yes	50 to 100 nM	yes	2400 nM	yes	200 nM	yes	200 nM	–	–	–
